Experimental data published in PMC8041784, “Preference of Proteomonas sulcata anion channelrhodopsin for NO3^− revealed using a pH electrode method” (Scientific Reports, 2021).

Experiments:
GtACR1 [1] = molecular target: T1, GtACR1 (Guillardia theta, UniProt L1J207); assay: light-induced pH change of yeast cell suspension (pH electrode); assay type: cell-based; details: 300 mM NaNO3; 530 nm LED 10 mW/cm^2; initial pH about 5; about 16 °C
T1 construct: gene GUITHDRAFT_111593; 295 residues, C-terminal 8xHis tag, codon-optimised gene, expressed in Pichia pastoris SMD1168H cells; also purified in DDM
T1 sequence (L1J207 entry or part of it): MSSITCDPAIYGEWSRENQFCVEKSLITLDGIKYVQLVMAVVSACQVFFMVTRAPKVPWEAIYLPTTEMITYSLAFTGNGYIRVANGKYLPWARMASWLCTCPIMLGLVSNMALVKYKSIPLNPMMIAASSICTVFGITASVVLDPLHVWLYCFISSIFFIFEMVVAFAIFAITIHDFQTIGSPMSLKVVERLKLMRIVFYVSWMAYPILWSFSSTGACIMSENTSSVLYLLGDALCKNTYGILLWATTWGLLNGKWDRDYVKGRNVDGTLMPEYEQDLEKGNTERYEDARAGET

GtACR1 [2] = molecular target: T1, GtACR1; assay: visible absorption spectrum of purified protein; assay type: binding; details: covalent (retinal protonated Schiff base); 10 mM MOPS pH 7, 1 M NaCl, 0.05% DDM

O=[N+]([O-])O [NO3^−]
light-induced pH change of yeast cell suspension (pH electrode) (GtACR1 [1]): significant transport activities were obtained for the anions except for F^− and Asp^−

CC1=C(/C=C/C(C)=C/C=C/C(C)=C/C=O)C(C)(C)CCC1 [all-trans-retinal]
visible absorption spectrum of purified protein (GtACR1 [2]): Visible absorption spectrum of purified GtACR1
